The values that follow come from PubChem BioAssay AID248 (DTP/NCI, 2004).

The assay deals with L1210 leukemia ip in BDF1 mice, survival T/C. The assay is described as follows: NCI In Vivo Anticancer Drug Screen. Data for tumor model L1210 Leukemia (intraperitoneal) in B6D2F1 (BDF1) mice. The following applies: endpoint: mean survival time, higher = longer survival. In a few lines:
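Survival endpoint. Drug-treated group vs vehicle group, expressed as T divided by C. Tumor passaged by transplantation.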

Structures are written as SMILES. Where “and” joins values, the source holds several entries; their conditions need not be identical. Equal entries are not always repeated. Inconclusive results and toxic doses are left out.

Regarding `O=[N+]([O-])c1ccccc1C(c1ccc2ccccc2c1O)N1CCOCC1` (stereo not given), the T/C was 86 % of control (dose: 100.0 mg/kg/injection, schedule: Q01DX001 (ip), vehicle: saline sonified); 91 % of control (dose: 200.0 mg/kg/injection, schedule: Q01DX001 (ip), vehicle: saline sonified); 90 % of control (dose: 400.0 mg/kg/injection, schedule: Q01DX001 (ip), vehicle: saline sonified).
For `CSc1ccc2c(c1)-c1ccccc1C2=O`, the T/C (dose: 100.0 mg/kg/injection, schedule: Q04DX003 (ip), vehicle: acetone) is 94 % of control; the T/C (dose: 200.0 mg/kg/injection, schedule: Q04DX003 (ip), vehicle: acetone) was 89 % of control; the T/C (dose: 400.0 mg/kg/injection, schedule: Q04DX003 (ip), vehicle: acetone) is 93 % of control.
As to `Cc1cccc(NC(=S)NCCc2ccccn2)c1`, the T/C is, setting by setting: (dose: 100.0 mg/kg/injection, schedule: Q04DX002 (ip), vehicle: saline with Tween-80) 97 % of control; (dose: 200.0 mg/kg/injection, schedule: Q04DX002 (ip), vehicle: saline with Tween-80) 97 % of control.
With `CCOC(=O)NP(=O)(N1CC1)N1CC1`, the T/C is, setting by setting: (dose: 0.16 mg/kg/injection, schedule: Q#A X Z (ip), vehicle: saline) 100 % of control; (dose: 0.31 mg/kg/injection, schedule: Q#A X Z (ip), vehicle: saline) 100 % of control; (dose: 0.32 mg/kg/injection, schedule: Q01DX Z (im), vehicle: saline) 105 % of control; (dose: 0.32 mg/kg/injection, schedule: Q01DX Z (ip), vehicle: saline) 102 % of control; (dose: 0.62 mg/kg/injection, schedule: Q#A X Z (ip), vehicle: saline) 102 % of control; (dose: 0.63 mg/kg/injection, schedule: Q01DX Z (im), vehicle: saline) 105 % of control. Further, the T/C (dose: 0.63 mg/kg/injection, schedule: Q01DX Z (ip), vehicle: saline) is 98 % of control; the T/C (dose: 0.7 mg/kg/injection, schedule: Q01DX Z (ip), vehicle: carboxymethylcellulose (CMC)) is 101 % of control; the T/C (dose: 0.9 mg/kg/injection, schedule: Q03DX006 (ip), vehicle: saline) was 104 % of control; the T/C (dose: 1.25 mg/kg/injection, schedule: Q01DX Z (im), vehicle: saline) was 104 % of control; the T/C (dose: 1.25 mg/kg/injection, schedule: Q01DX Z (ip), vehicle: saline) is 105 % of control; the T/C (dose: 1.25 mg/kg/injection, schedule: Q01DX Z (oral), vehicle: saline) is 100 % of control. The T/C is, setting by setting: (dose: 1.25 mg/kg/injection, schedule: Q#A X Z (ip), vehicle: saline) 121 % of control; (dose: 1.5 mg/kg/injection, schedule: Q01DX Z (ip), vehicle: carboxymethylcellulose (CMC)) 104 % of control; (dose: 1.9 mg/kg/injection, schedule: Q03DX006 (ip), vehicle: saline) 104 % of control; (dose: 2.2 mg/kg/injection, schedule: Q01DX001 (ip), vehicle: saline) 101 % of control and 107 % of control; (dose: 2.2 mg/kg/injection, schedule: Q07DX003 (ip), vehicle: saline) 105 % of control; (dose: 2.37 mg/kg/injection, schedule: Q01DX Z (ip), vehicle: carboxymethylcellulose (CMC)) 114 % of control. For the same compound, the T/C runs as follows: (dose: 2.5 mg/kg/injection, schedule: Q01DX Z (im), vehicle: saline) 107 % of control; (dose: 2.5 mg/kg/injection, schedule: Q01DX Z (ip), vehicle: saline) 107 % of control; (dose: 2.5 mg/kg/injection, schedule: Q01DX Z (oral), vehicle: saline) 107 % of control; (dose: 3.0 mg/kg/injection, schedule: Q01DX Z (ip), vehicle: carboxymethylcellulose (CMC)) 113 % of control; (dose: 3.8 mg/kg/injection, schedule: Q03DX006 (ip), vehicle: saline) 105 % of control; (dose: 4.4 mg/kg/injection, schedule: Q01DX001 (ip), vehicle: saline) 102 % of control. Further, the T/C reads like this: (dose: 4.4 mg/kg/injection, schedule: Q07DX003 (ip), vehicle: saline) 105 % of control; (dose: 5.0 mg/kg/injection, schedule: Q01DX006 (iv), vehicle: saline) 100 % of control; (dose: 5.0 mg/kg/injection, schedule: Q01DX Z (oral), vehicle: saline) 100 % of control; (dose: 5.0 mg/kg/injection, schedule: Q01DX Z (sc), vehicle: saline) 120 % of control; (dose: 5.06 mg/kg/injection, schedule: Q01DX Z (ip), vehicle: carboxymethylcellulose (CMC)) 117 % of control; (dose: 6.0 mg/kg/injection, schedule: Q01DX Z (ip), vehicle: carboxymethylcellulose (CMC)) 158 % of control. For the same compound, the T/C (dose: 6.33 mg/kg/injection, schedule: Q01DX Z (ip), vehicle: carboxymethylcellulose (CMC)) was 124 % of control; the T/C (dose: 7.5 mg/kg/injection, schedule: Q03DX006 (ip), vehicle: saline) is 119 % of control; the T/C (dose: 8.7 mg/kg/injection, schedule: Q01DX001 (ip), vehicle: saline) is 108 % of control; the T/C (dose: 8.7 mg/kg/injection, schedule: Q07DX003 (ip), vehicle: saline) is 105 % of control; the T/C (dose: 8.75 mg/kg/injection, schedule: Q01DX001 (ip), vehicle: saline) was 113 % of control and 123 % of control; the T/C (dose: 9.5 mg/kg/injection, schedule: Q01DX Z (ip), vehicle: carboxymethylcellulose (CMC)) was 157 % of control. The T/C (dose: 10.0 mg/kg/injection, schedule: Q01DX006 (iv), vehicle: saline) was 105 % of control; the T/C (dose: 10.0 mg/kg/injection, schedule: Q01DX Z (im), vehicle: saline) was 160 % of control; the T/C (dose: 10.0 mg/kg/injection, schedule: Q01DX Z (ip), vehicle: saline) was 195 % of control; the T/C (dose: 10.0 mg/kg/injection, schedule: Q01DX Z (oral), vehicle: saline) was 115 % of control; the T/C (dose: 10.0 mg/kg/injection, schedule: Q#A X Z (ip), vehicle: saline) was 110 % of control; the T/C (dose: 12.0 mg/kg/injection, schedule: Q01DX Z (ip), vehicle: carboxymethylcellulose (CMC)) is 115 % of control. For the same compound, the T/C is 152 % of control (dose: 12.66 mg/kg/injection, schedule: Q01DX Z (ip), vehicle: carboxymethylcellulose (CMC)); 182 % of control (dose: 15.0 mg/kg/injection, schedule: Q03DX007 (ip), vehicle: saline); 117 % of control (dose: 20.0 mg/kg/injection, schedule: Q01DX006 (iv), vehicle: saline); 152 % of control (dose: 20.0 mg/kg/injection, schedule: Q01DX Z (im), vehicle: saline); 175 % of control (dose: 20.0 mg/kg/injection, schedule: Q01DX Z (sc), vehicle: saline); 94 % of control and 102 % of control (dose: 24.0 mg/kg/injection, schedule: Q01DX Z (ip), vehicle: carboxymethylcellulose (CMC)). The T/C is 165 % of control (dose: 30.0 mg/kg/injection, schedule: Q03DX007 (ip), vehicle: saline); 94 % of control (dose: 38.0 mg/kg/injection, schedule: Q01DX Z (ip), vehicle: carboxymethylcellulose (CMC)); 94 % of control (dose: 40.0 mg/kg/injection, schedule: Q01DX Z (im), vehicle: saline); 103 % of control (dose: 40.0 mg/kg/injection, schedule: Q01DX Z (ip), vehicle: saline); 155 % of control (dose: 40.0 mg/kg/injection, schedule: Q01DX Z (oral), vehicle: saline); 115 % of control (dose: 70.0 mg/kg/injection, schedule: Q07DX001 (ip), vehicle: saline). Moreover, the T/C was 111 % of control (dose: 80.0 mg/kg/injection, schedule: Q01DX Z (sc), vehicle: saline) and 105 % of control (dose: 280.0 mg/kg/injection, schedule: Q01DX001 (ip), vehicle: saline).
Regarding `CC(C)(C)CC(C)(C)N(CSc1ccc(Br)cc1)CSc1ccc(Br)cc1`, the T/C reads like this: (dose: 100.0 mg/kg/injection, schedule: Q01DX001 (ip), vehicle: saline) 89 % of control; (dose: 200.0 mg/kg/injection, schedule: Q01DX001 (ip), vehicle: saline) 90 % of control; (dose: 400.0 mg/kg/injection, schedule: Q01DX001 (ip), vehicle: saline) 93 % of control.
For the compound `CC(C)(C(=O)O)S(=O)(=O)O`, the T/C reads like this: (dose: 100.0 mg/kg/injection, schedule: Q01DX009 (ip), vehicle: saline) 108 % of control; (dose: 200.0 mg/kg/injection, schedule: Q01DX009 (ip), vehicle: saline) 97 % of control; (dose: 400.0 mg/kg/injection, schedule: Q01DX009 (ip), vehicle: saline) 103 % of control.
